In publication PMC5218480 (PLoS ONE, 2017):

System: MV-4-11 cells
Experiment: Gene expression microarray analysis (Affymetrix PrimeView) and GSEA
Type: cell-based, human
Set-up: RFU PODN (11730768_x_at) / Fold change /veh PODN (11730768_x_at) / RFU LINC00158 (11744669_a_at) / Fold change /veh LINC00158 (11744669_a_at) / RFU DUSP10 (11751237_a_at) / Fold change /veh DUSP10 (11751237_a_at) / RFU ID3 (11757404_x_at) / Fold change /veh ID3 (11757404_x_at) / RFU PLEKHG5 (11737974_s_at) / Fold change /veh PLEKHG5 (11737974_s_at) / RFU LRRC4B (11730491_at) / Fold change /veh LRRC4B (11730491_at) / RFU GIMAP4 (11747438_a_at) / Fold change /veh GIMAP4 (11747438_a_at) / RFU KRT8 (11758183_x_at) / Fold change /veh KRT8 (11758183_x_at) / RFU CNN1 (11734310_a_at) / Fold change /veh CNN1 (11734310_a_at) / RFU VPS37D (11726825_at) / Fold change /veh VPS37D (11726825_at) / RFU C10orf10 (11716522_x_at) / Fold change /veh C10orf10 (11716522_x_at) / RFU KIR2DL2 /// KIR2DL4 /// KIR2DL5A /// KIR2DL5B /// KIR2DS1 /// KIR2DS2 /// KIR2DS3 /// KIR2DS4 /// KIR3DL3 /// KIR3DL3 /// KIR3DS1 (11738374_at) / Fold change /veh KIR2DL2 /// KIR2DL4 /// KIR2DL5A /// KIR2DL5B /// KIR2DS1 /// KIR2DS2 /// KIR2DS3 /// KIR2DS4 /// KIR3DL3 /// KIR3DL3 /// KIR3DS1 (11738374_at) / RFU C1QL1 (11718748_at) / Fold change /veh C1QL1 (11718748_at) / RFU TMPRSS4 (11747572_a_at) / Fold change /veh TMPRSS4 (11747572_a_at) / RFU HAMP (11756126_x_at) / Fold change /veh HAMP (11756126_x_at) / RFU RNFT2 (11725882_a_at) / Fold change /veh RNFT2 (11725882_a_at) / RFU NR4A2 (11747474_a_at) / Fold change /veh NR4A2 (11747474_a_at) / RFU ABCC12 (11746883_a_at) / Fold change /veh ABCC12 (11746883_a_at) / RFU TMEM136 (11760407_x_at) / Fold change /veh TMEM136 (11760407_x_at) / RFU CLDN22 /// WWC2 (11732394_at) / Fold change /veh CLDN22 /// WWC2 (11732394_at) / RFU HLA-DPB1 (11760878_x_at) / Fold change /veh HLA-DPB1 (11760878_x_at) / RFU SPINT1 (11716480_a_at) / Fold change /veh SPINT1 (11716480_a_at) / RFU GAP43 (11754022_s_at) / Fold change /veh GAP43 (11754022_s_at) / RFU A4GNT (11735810_at) / Fold change /veh A4GNT (11735810_at) / RFU PRB3 (11715151_x_at) / Fold change /veh PRB3 (11715151_x_at) / RFU TUBB4B (11761932_at) / Fold change /veh TUBB4B (11761932_at) / RFU CAPN14 (11732068_a_at) / Fold change /veh CAPN14 (11732068_a_at) / RFU TMCC2 (11721928_a_at) / Fold change /veh TMCC2 (11721928_a_at) / RFU IRGQ (11745062_a_at) / Fold change /veh IRGQ (11745062_a_at) / RFU FAM174B (11720279_a_at) / Fold change /veh FAM174B (11720279_a_at) / RFU TMPRSS4 (11748680_a_at) / Fold change /veh TMPRSS4 (11748680_a_at) / RFU FAM212B (11763350_a_at) / Fold change /veh FAM212B (11763350_a_at) / RFU PLEKHG5 (11743358_a_at) / Fold change /veh PLEKHG5 (11743358_a_at) / RFU ZSCAN30 (11745921_a_at) / Fold change /veh ZSCAN30 (11745921_a_at) / RFU CMKLR1 (11741424_a_at) / Fold change /veh CMKLR1 (11741424_a_at) / RFU LOC101060620 /// MAPK8IP1 (11723275_at) / Fold change /veh LOC101060620 /// MAPK8IP1 (11723275_at) / RFU SPTSSB (11747773_x_at) / Fold change /veh SPTSSB (11747773_x_at) / RFU PRSS12 (11739890_at) / Fold change /veh PRSS12 (11739890_at) / RFU BIN1 (11741810_x_at) / Fold change /veh BIN1 (11741810_x_at) / RFU WNT11 (11732464_a_at) / Fold change /veh WNT11 (11732464_a_at) / RFU C10orf10 (11716521_a_at) / Fold change /veh C10orf10 (11716521_a_at) / RFU C5orf56 (11738089_at) / Fold change /veh C5orf56 (11738089_at) / RFU CYB561 (11721691_x_at) / Fold change /veh CYB561 (11721691_x_at) / RFU ANKRD19P (11752326_a_at) / Fold change /veh ANKRD19P (11752326_a_at) / RFU OR2T12 /// OR2T33 /// OR2T8 (11738714_s_at) / Fold change /veh OR2T12 /// OR2T33 /// OR2T8 (11738714_s_at) / RFU VCAN (11748164_a_at) / Fold change /veh VCAN (11748164_a_at) / RFU JSRP1 (11732532_at) / Fold change /veh JSRP1 (11732532_at) / RFU KRTAP10-11 (11738290_x_at) / Fold change /veh KRTAP10-11 (11738290_x_at) / RFU MYO3A (11730013_a_at) / Fold change /veh MYO3A (11730013_a_at) / RFU EBF3 (11725865_a_at) / Fold change /veh EBF3 (11725865_a_at) / RFU CAMK2N1 (11719241_x_at) / Fold change /veh CAMK2N1 (11719241_x_at) / RFU C5orf56 (11738088_a_at) / Fold change /veh C5orf56 (11738088_a_at) / RFU OLFML3 (11715873_a_at) / Fold change /veh OLFML3 (11715873_a_at) / RFU LOC100653217 /// NTM (11731650_a_at) / Fold change /veh LOC100653217 /// NTM (11731650_a_at) / RFU MAPK11 (11762145_a_at) / Fold change /veh MAPK11 (11762145_a_at) / RFU FIZ1 (11724087_x_at) / Fold change /veh FIZ1 (11724087_x_at) / RFU OASL (11726364_x_at) / Fold change /veh OASL (11726364_x_at) / RFU SOX15 (11748057_x_at) / Fold change /veh SOX15 (11748057_x_at) / RFU CD79A (11719716_a_at) / Fold change /veh CD79A (11719716_a_at) / RFU HIST1H1D (11736915_at) / Fold change /veh HIST1H1D (11736915_at) / RFU CASKIN2 (11723855_a_at) / Fold change /veh CASKIN2 (11723855_a_at) / RFU LOC730098 (11760151_x_at) / Fold change /veh LOC730098 (11760151_x_at) / RFU OR4N2 (11742367_at) / Fold change /veh OR4N2 (11742367_at) / RFU PRRT2 (11749266_a_at) / Fold change /veh PRRT2 (11749266_a_at) / RFU SNX32 (11753110_a_at) / Fold change /veh SNX32 (11753110_a_at) / RFU CDHR5 (11726645_a_at) / Fold change /veh CDHR5 (11726645_a_at) / RFU RCAN1 (11760418_a_at) / Fold change /veh RCAN1 (11760418_a_at) / RFU FAM167A (11723789_a_at) / Fold change /veh FAM167A (11723789_a_at) / RFU FAM26E (11764081_at) / Fold change /veh FAM26E (11764081_at) / RFU ISYNA1 (11749810_s_at) / Fold change /veh ISYNA1 (11749810_s_at) / RFU ACY1 (11761880_at) / Fold change /veh ACY1 (11761880_at) / RFU 11764098_at / Fold change /veh 11764098_at / RFU SAMD14 (11745864_x_at) / Fold change /veh SAMD14 (11745864_x_at) / RFU NPB (11741838_a_at) / Fold change /veh NPB (11741838_a_at) / RFU TMPRSS6 (11731388_a_at) / Fold change /veh TMPRSS6 (11731388_a_at) / RFU KRTAP10-2 (11738614_at) / Fold change /veh KRTAP10-2 (11738614_at) / RFU ARHGAP8 /// PRR5-ARHGAP8 (11727945_x_at) / Fold change /veh ARHGAP8 /// PRR5-ARHGAP8 (11727945_x_at) / RFU KRTAP5-7 /// NADSYN1 (11734609_at) / Fold change /veh KRTAP5-7 /// NADSYN1 (11734609_at) / RFU RASL12 (11751679_a_at) / Fold change /veh RASL12 (11751679_a_at) / RFU CDKN2B (11736163_a_at) / Fold change /veh CDKN2B (11736163_a_at) / RFU PRF1 (11729649_at) / Fold change /veh PRF1 (11729649_at) / RFU, ZNF638 /// ZNF638-IT1 / Fold change vs veh, ZNF638 /// ZNF638-IT1 / RFU, PANK3 / Fold change vs veh, PANK3 / RFU, SH3YL1 / Fold change vs veh, SH3YL1 / RFU, ZEB2 / Fold change vs veh, ZEB2 / RFU, NRIP1 / Fold change vs veh, NRIP1 / RFU, PTTG1IP / Fold change vs veh, PTTG1IP / RFU, CAPN2 / Fold change vs veh, CAPN2 / RFU, MED14 / Fold change vs veh, MED14 / RFU, SNORA58 / Fold change vs veh, SNORA58 / RFU, C1orf63 / Fold change vs veh, C1orf63 / RFU, LRRFIP1 / Fold change vs veh, LRRFIP1 / RFU, NDUFAF7 / Fold change vs veh, NDUFAF7 / RFU, SLC12A2 / Fold change vs veh, SLC12A2 / RFU, IBTK / Fold change vs veh, IBTK / RFU, ESF1 / Fold change vs veh, ESF1 / Fold change vs veh, TMEM50B / RFU, TAOK1 / Fold change vs veh, TAOK1 / RFU, ACBD3 / Fold change vs veh, ACBD3 / RFU, TMA16 / Fold change vs veh, TMA16 / RFU, RWDD3 / Fold change vs veh, RWDD3 / RFU, BCAT1 / Fold change vs veh, BCAT1 / RFU, EDEM3 / Fold change vs veh, EDEM3 / RFU, TMEM33 / Fold change vs veh, TMEM33 / RFU, WDR75 / Fold change vs veh, WDR75 / RFU, AHCTF1 / Fold change vs veh, AHCTF1 / RFU, TFRC / Fold change vs veh, TFRC / RFU, ZDHHC17 / Fold change vs veh, ZDHHC17 / RFU, NOM1 / Fold change vs veh, NOM1 / RFU, ARL8B / Fold change vs veh, ARL8B / RFU, ZBTB11 / Fold change vs veh, ZBTB11 / RFU, TAMM41 / Fold change vs veh, TAMM41 / RFU, KIAA1704 /// LOC100996395 / Fold change vs veh, KIAA1704 /// LOC100996395 / RFU, ING1 / Fold change vs veh, ING1 / RFU, TRMT61B / Fold change vs veh, TRMT61B / RFU, FUBP3 / Fold change vs veh, FUBP3 / RFU, TP53 / Fold change vs veh, TP53 / RFU, TNKS2 / Fold change vs veh, TNKS2 / RFU, ZFP14 / Fold change vs veh, ZFP14 / RFU, ACTR2 / Fold change vs veh, ACTR2 / RFU, PPP3R1 / Fold change vs veh, PPP3R1 / RFU, PIK3R1 / Fold change vs veh, PIK3R1 / RFU, HNRNPA1 / Fold change vs veh, HNRNPA1 / RFU, RNF170 / Fold change vs veh, RNF170 / RFU, ZNF28 / Fold change vs veh, ZNF28 / RFU, RNGTT / Fold change vs veh, RNGTT / RFU, OGT / Fold change vs veh, OGT / RFU, BRD1 / Fold change vs veh, BRD1 / RFU, MARS / Fold change vs veh, MARS / RFU, ZNF655 / Fold change vs veh, ZNF655 / RFU, FAHD1 / Fold change vs veh, FAHD1 / RFU, BDP1 / Fold change vs veh, BDP1 / RFU, LRRCC1 / Fold change vs veh, LRRCC1 / RFU, ARID1A / Fold change vs veh, ARID1A / RFU, ZNF146 / Fold change vs veh, ZNF146 / RFU, ZNF330 / Fold change vs veh, ZNF330 / RFU, GPN3 / Fold change vs veh, GPN3 / RFU, C9orf123 / Fold change vs veh, C9orf123 / RFU, N4BP2L2 / Fold change vs veh, N4BP2L2 / RFU, ARFIP1 / Fold change vs veh, ARFIP1 / RFU, FAM179B / Fold change vs veh, FAM179B / RFU, BCL10 / Fold change vs veh, BCL10 / RFU, UHRF1BP1L / Fold change vs veh, UHRF1BP1L / RFU, BET1 / Fold change vs veh, BET1 / RFU, CNOT2 / Fold change vs veh, CNOT2 / RFU, ZNF268 / Fold change vs veh, ZNF268 / Fold change vs veh, ZNF507 / RFU, DGCR2 / Fold change vs veh, DGCR2 / RFU, WDSUB1 / Fold change vs veh, WDSUB1 / Fold change vs veh, HSP90B1 /// MIR3652 / RFU, ADSS / Fold change vs veh, ADSS / RFU, GK / Fold change vs veh, GK / RFU, ZNF148 / Fold change vs veh, ZNF148 / RFU, TAF9 / Fold change vs veh, TAF9 / RFU, SLC1A5 / Fold change vs veh, SLC1A5 / RFU, SLMO2 / Fold change vs veh, SLMO2 / RFU, ABCC4 / Fold change vs veh, ABCC4 / RFU, LOC101060439 /// RAP1B / Fold change vs veh, LOC101060439 /// RAP1B / RFU, RFX7 / Fold change vs veh, RFX7 / RFU, GTPBP10 / Fold change vs veh, GTPBP10 / RFU, CNEP1R1 / Fold change vs veh, CNEP1R1 / RFU, BIVM-ERCC5 /// ERCC5 / Fold change vs veh, BIVM-ERCC5 /// ERCC5 / RFU, ILF3 / Fold change vs veh, ILF3 / RFU 11762660_at / Fold change /veh 11762660_at / RFU VCAN (11757783_s_at) / Fold change /veh VCAN (11757783_s_at) / RFU DDX43 (11728927_at) / Fold change /veh DDX43 (11728927_at) / RFU KRT8 (11758188_x_at) / Fold change /veh KRT8 (11758188_x_at) / RFU NKD1 (11759106_at) / Fold change /veh NKD1 (11759106_at) / RFU SRD5A1 (11742802_a_at) / Fold change /veh SRD5A1 (11742802_a_at) / RFU TPSAB1 /// TPSB2 (11721975_s_at) / Fold change /veh TPSAB1 /// TPSB2 (11721975_s_at) / RFU GSTM3 (11746129_a_at) / Fold change /veh GSTM3 (11746129_a_at) / RFU IL23R (11737362_x_at) / Fold change /veh IL23R (11737362_x_at) / RFU TMEM51 (11727254_a_at) / Fold change /veh TMEM51 (11727254_a_at) / RFU PIWIL2 (11732686_x_at) / Fold change /veh PIWIL2 (11732686_x_at) / RFU ORM1 (11744905_x_at) / Fold change /veh ORM1 (11744905_x_at) / RFU CCDC152 (11743942_at) / Fold change /veh CCDC152 (11743942_at) / RFU ECM1 (11717891_a_at) / Fold change /veh ECM1 (11717891_a_at) / RFU IL23R (11748794_a_at) / Fold change /veh IL23R (11748794_a_at) / RFU TNFAIP8L3 (11732012_x_at) / Fold change /veh TNFAIP8L3 (11732012_x_at) / RFU MBOAT4 (11741988_at) / Fold change /veh MBOAT4 (11741988_at) / RFU 11764193_at / Fold change /veh 11764193_at / RFU TMEM53 (11763286_at) / Fold change /veh TMEM53 (11763286_at) / RFU MAGEB2 (11727129_at) / Fold change /veh MAGEB2 (11727129_at) / RFU TMEM200A (11744735_a_at) / Fold change /veh TMEM200A (11744735_a_at) / RFU CCDC152 (11751479_a_at) / Fold change /veh CCDC152 (11751479_a_at) / RFU FAM211A (11726209_a_at) / Fold change /veh FAM211A (11726209_a_at) / RFU RGS16 (11746705_a_at) / Fold change /veh RGS16 (11746705_a_at) / RFU VCAN (11755009_s_at) / Fold change /veh VCAN (11755009_s_at) / RFU RHOB (11743442_s_at) / Fold change /veh RHOB (11743442_s_at) / RFU RGS16 (11720943_a_at) / Fold change /veh RGS16 (11720943_a_at) / RFU RGS16 (11720944_at) / Fold change /veh RGS16 (11720944_at) / RFU, VPS4B / Fold change vs veh, VPS4B / RFU, CREB1 / Fold change vs veh, CREB1 / RFU, DNAJC13 / Fold change vs veh, DNAJC13 / RFU, GNAQ / Fold change vs veh, GNAQ / RFU, CDK5R1 / Fold change vs veh, CDK5R1 / RFU, ZRANB3 / Fold change vs veh, ZRANB3 / RFU, CUL4A / Fold change vs veh, CUL4A / RFU, CCNY / Fold change vs veh, CCNY / RFU, UFL1 / Fold change vs veh, UFL1 / RFU, COG3 / Fold change vs veh, COG3 / RFU, DIAPH2 / Fold change vs veh, DIAPH2 / RFU, SKA2 / Fold change vs veh, SKA2 / RFU, AFF3 / Fold change vs veh, AFF3 / RFU, LMF1 / Fold change vs veh, LMF1 / RFU, IPO11 / Fold change vs veh, IPO11 / RFU, DFFB / Fold change vs veh, DFFB / RFU, FOXP1 / Fold change vs veh, FOXP1 / RFU, CARD8 / Fold change vs veh, CARD8 / RFU, STRN3 / Fold change vs veh, STRN3 / RFU, ADK / Fold change vs veh, ADK / RFU, RASSF2 / Fold change vs veh, RASSF2 / RFU, WIPF1 / Fold change vs veh, WIPF1 / RFU, LARP1B / Fold change vs veh, LARP1B / RFU, RASA1 / Fold change vs veh, RASA1 / RFU, RB1 / Fold change vs veh, RB1 / RFU, PPFIA1 / Fold change vs veh, PPFIA1 / RFU, MAT2A / Fold change vs veh, MAT2A / RFU, CCT5 / Fold change vs veh, CCT5 / RFU, WDR92 / Fold change vs veh, WDR92 / RFU, CUX1 / Fold change vs veh, CUX1 / RFU, TTC7A / Fold change vs veh, TTC7A / RFU, TMEM135 / Fold change vs veh, TMEM135 / RFU, DEPTOR / Fold change vs veh, DEPTOR / RFU, CPM / Fold change vs veh, CPM / RFU, DNAJB6 / Fold change vs veh, DNAJB6 / RFU, CACNA2D3 / Fold change vs veh, CACNA2D3 / RFU, DTX4 / Fold change vs veh, DTX4 / RFU, TFCP2 / Fold change vs veh, TFCP2 / RFU, GMCL1 /// GMCL1P1 / Fold change vs veh, GMCL1 /// GMCL1P1 / RFU, AEBP2 / Fold change vs veh, AEBP2 / RFU, SNHG1 /// SNORD22 /// SNORD25 /// SNORD26 /// SNORD27 /// SNORD28 /// SNORD29 /// SNORD31 / Fold change vs veh, SNHG1 /// SNORD22 /// SNORD25 /// SNORD26 /// SNORD27 /// SNORD28 /// SNORD29 /// SNORD31 / Fold change (Aza/veh), C12orf56 (ProbeSet 11735607_a_at) / Fold change (ACY-1035/veh), C12orf56 (ProbeSet 11735607_a_at) / Fold change (Aza/veh), FGFR1OP (ProbeSet 11751329_s_at) / Fold change (ACY-1035/veh), FGFR1OP (ProbeSet 11751329_s_at) / Fold change (Aza/veh), VPS36 (ProbeSet 11739960_a_at) / Fold change (ACY-1035/veh), VPS36 (ProbeSet 11739960_a_at) / RFU SYPL1 (11715823_x_at) / Fold change /veh SYPL1 (11715823_x_at) / RFU IGFBP7 (11715501_s_at) / Fold change /veh IGFBP7 (11715501_s_at) / RFU REEP3 (11722064_at) / Fold change /veh REEP3 (11722064_at) / RFU IGLL1 (11728026_x_at) / Fold change /veh IGLL1 (11728026_x_at): dose or concentration left out as unconfirmed
Settings: ProbeSet 11719185_x_at; LIST B

Nc1ccc(-c2cccs2)cc1NC(=O)c1ccc2c(c1)cc(C1CC1)n2CCN1CCOCC1 [ACY-1035]
RFU, N4BP2L2: 104.68 RFU
